# “And” between values parts separate entries of the source, which are not always exact repeats. Equal entries are not always repeated. Where two headings read alike, the source gives them in different places.
# Key:
# [1] = test system: OH. generated from Fenton's reaction; assay: Luminol-dependent chemiluminescence induced by Fenton's reagent; type: biochemical; parameters: unit of the concentration uncertain; conditions: F: CL induced by Fenton's reagent, n=3
# Procedure: CL was measured with a luminometer (Model 1250; LKB Wallac, Finland) and recorded in millivolts (Cheung et al., 1984, supra).
# Fenton's reagent (FeSO4 and H2O2) was used as a standard reaction mixture for the generation of OH. (Lai and Piette, 1979, Tetrahedron Lett. 775-778):
# Fe^+++H2O2→Fe^++++OH.+OH (1)
# The initial reaction mixture consisted of 20 μL of 3.8 mM FeSO4.7H2O, 20 μL of 5 mg/mL luminol (Sigma), and 2 mL of 1 mM phosphate buffer in a 3 mL polystyrene cuvette. Twenty microlitres of 320 mM H2O2 was added to initiate the Fenton's reaction.
# A known concentration of the ethanolic (≲1%) aspirin analogue or diflunisal ester's stock solution was added to the 1 mM phosphate buffer to prepare solutions with a final concentration of 50 μM, 250 μM or 500 μM. Twenty microlitres of these test samples was added onto the cuvette which contained the initial reaction mixture. H2O2 was added to induce CL reaction. The luminol-dependent CL response was recorded in mV by a potentiometric recorder.
# (§1) CL measurements were always done in triplicate and Student's t-test used to assess the statistical significance of the difference between measurements.
# [2] = test system: human platelet rich plasma; assay: Platelet aggregation induced by arachidonic acid; type: cell-based; conditions: compound 600 µM, 37° C., arachidonic acid 200 µM
# Procedure: Platelet aggregation studies were carried out using a single channel Lumiaggregometer (Chrono-Log Company, Haverton, Pa.) at 37° C. using human platelet-rich and platelet-poor plasma. Platelet-rich plasma (PRP) with a platelet concentration of […] (measured with a Coulter counter) was prepared by centrifuging 3.8% citrated […] (1:9) at 1,500 rpm using a (Beckman) benchtop centrifuge at room temperature for 15 minutes. Platelet-poor plasma (PPP) was prepared by further centrifuging residual blood from platelet-rich plasma at 3,000 rpm for 30 minutes. Platelet-poor plasma was also confirmed b y Coulter counting for platelet content.
# Platelet aggregation studies were preceded by pipetting 0.4 mL platelet-rich plasma into a stirred aggregometer tube and calibrate to 90% of recorder. Platelet-poor plasma was set to calibrate at 10% of recorder. Platelet aggregation was initiated by the addition of a arachidonic acid (Sigma) or ADP (Sigma).
# 10 mM solutions of each compound (TABLE 6) were prepared in 1 mL of normal saline solution (containing 4% BSA) before use. An aliquot (400 μL) of platelet-rich plasma was pipetted into a stirred aggregometer tube at 37° C. and 30 μL of test sample added simultaneously. This mixture was preincubated for varying period (3 to 45 minutes), then arachidonic acid (AA) was added (final conc.=200 μM) to initiate platelet aggregation. If no aggregation occurred, 20 μM ADP was added to confirm the vitality of the platelets (if the platelets are vital, ADP will induce this AA-test sample-plasma mixture to aggregate). This procedure is necessary to investigate whether the non-aggregation phenomenon is due to drug inhibition or simply due to inviable platelets (unable to respond to AA). The degree of aggregation was measure by calculating the area under the turbidimetric response curve (AUC).
# [3] = test system: ischaemic/reperfusion rat livers; assay: Ischaemic/reperfusion injury in rat livers (LDH release, bile production); parameters: species or system Female Sprague-Dawley rats; conditions: C is the ED50 molar dose
# Procedure: Female Sprague-Dawley rats (220-250 g) were anaesthetised by interperitoneal injection of pentobarbital sodium (60 mg/kg, Boehringer Ingelhein). […] The bile duct was cannulated with a polyethylene tubing (PE-10, I.D. 0.28 mm; Clay Adams, New Jersey) and bile was collected into pre-weighed microcentrifuge tubes at 70 min intervals (in the middle of experiment and the end of experiment). The portal vein was then cannulated using a 16 G intravenous catheter and the liver was perfused via this cannula with 2% BSA Krebs-Henseleit bicarbonate buffer (pH 7.4) and oxygenated using a membrane oxygenator comprising of silastic tubing and ventilated with carbogen (95% O2/5% CO2). The perfusion system used was recirculating and employed a peristaltic pump (Cole-Parmer, Illinois).
# Following a 10 min pre-ischaemia perfusion, the perfusion flow was stopped for 30 min at 37° C. with the liver being kept moist. At the end of this ischaemic phase, a known concentration of the aspirin analogue or diflunisal ester's solution (in 2% BSA Krebs-Henseleit buffer) was added into the perfusate prior to the perfusion being resumed for another 100 min. Outflow fractions were collected up to 140 min. A biochemistry autoanalyzer (Hitachi, model 747; Tokyo, Japan) was employed to determine the level of enzyme (LDH) release.
# The degree of ischaemic/reperfusion injury was measured by calculating the area under the LDH release ([…]) versus time curve (AUC). […] The efficacy of each compound is expressed in terms of ED50 which represents the molar dose for 50% reduction of LDH release compared to the control. The comparison of bile production between the first stage of experiment (the first 70 min) and the second stage of experiment (the last 70 min) is also used as index of liver function during an experiment.
# [4] = test system: superoxide generated from xanthine oxidase plus xanthine reaction; assay: Xanthine oxidase plus xanthine-induced chemiluminescence; type: biochemical; parameters: dose or concentration left out as unconfirmed; conditions: X: CL induced by xanthine oxidase plus xanthine
# Procedure: To clarify the role of aspirin analogues and diflunisal esters in free radicals scavenging, the Fenton's reagent was replaced by an artificial superoxide generating system in the CL inhibition studies. This cell-free system consisted of 100 μg/mL of xanthine oxidase (Sigma) plus 0.5 μM xanthine (Sigma) (Rosen and Klebanoff, 1976, J Clin Invest 58 50-60; Cheson et al., 1976, J Clin Invest 58 789-796).
# as §1
# [5] = In vitro non-enzymatic hydrolysis in Krebs-Henseleit buffer; type: physicochemical; conditions: for Hydrolysis rate constant (k): pH 7.4, 25° C., n=5; for half-life: pH 7.4, read-out: Half life (t1/2) (converted)
# Procedure: These experiments were carried out both in Krebs-Henseleit buffer containing either no protein or 2% w/v BSA (bovine serum albumin, fraction V, Sigma) at pH 7.4 and 25±1° C.
# Solutions of the derivatives in Krebs buffer (10 mL) was prepared in siliconised glass tubes. Each solution was sonicated for 5 minutes and centrifuged for 5 minutes (3000 g) at 25° C. to ensure maximum dissolution and to sediment any undissolved precipitate. About 7.5 mL of the supernatant was then transferred to a clean siliconised test tube and a 100 μL aliquot was removed and assayed. […] The rate of non-enzymatic hydrolysis (k) for each derivative was then estimated using the following equation: […]
# where C1 is the concentration of the ester at any time (t), and C0 is the concentration of the ester at time zero. The half-life (t½) was determined using the formula: […]
# [6] = test system: in-situ perfused rat liver; assay: In-situ rat liver perfusion bolus studies, moments and dispersion model analysis (Example 3); type: in vitro ADME, Sprague-Dawley rats; conditions: for CV^2 of reference solute / F (hepatic availability) of reference solute / MTT of reference solute: statistical moments analysis, n=12; for MTTE (mean transit time of blood): MTTE=MTTW/(+1), =0.59
# Procedure: Mature female Sprague-Dawley rats were obtained from the University of Queensland Animal Breeding Facility and weighed between 180-270 grams. The animals were given access to a standard laboratory diet prior to experiment. Rats were anaesthetised by interperitoneal injection of pentobarbital sodium (60 mg/kg, Boehringer Ingelhein). […] The bile duct was cannulated with PE10 (Clay Adams, New Jersey). 0.025 gm/L taurocholic acid (Sigma Co., USA.) was dissolved in perfusate to stimulate bile production. The portal vein was then cannulated using a 16 G intravenous catheter and the liver was perfused via this cannula with 2% BSA Krebs-Henseleit bicarbonate buffer (pH 7.4) and oxygenated using a silastic tubing lung ventilated with carbogen (95% O2/5% CO2). The perfusion system used was non-recirculating and employed a peristaltic pump (Cole-Parmer, Illinois).
# The animal was placed in a temperature controlled perfusion cabinet at 37° C. Liver viability was assessed by oxygen consumption, bile flow, diflunisal esters' extraction and macroscopic appearance.
# Perfusions were made at 30 mL/min in each liver. After a 10 minute perfusion stabilization period, injectate (50 μL) containing Evans Blue (3 mg/mL) and [^3H]-water in a saturated solution of the particular O-acyl diflunisal ester or pregenerated diflunisal (which was injected as parent compound) in 2% BSA Krebs-Henseleit buffer, was injected into the liver with outlet samples collected via a fraction collector over one minute.
# Aliquots (100 μL) of pooled perfusate samples were taken for Evans Blue spectrophotometric analysis and [^3H]-water scintillation counting before adjusting pH. These pooled samples were then acidified to pH 2.0 by addition of 1 M HCl and extracted into 2.5 volumes of ether. […] The ether fraction was then removed and reduced to approximately 100 μL by evaporation under air and prepared as before for HPLC analysis. A known concentration of each buffer solution of ester was concurrently extracted and assayed with the perfusate samples to assess the degree of spontaneous hydrolysis occurring over the duration of the extraction procedure. This non-enzymatic hydrolysis was converted for in the analysis. The total recovery of diflunisal esters extracted using this technique was >90%.
# The F, MTT and CV^2 for the diflunisal esters (or pregenerated DF) and the reference solutes (EB and [^3H]-water) were determined from the outflow concentration versus time profile using equation (1)-(4), with the assistance of the Moments Calculator 2.2 program for Macintosh computer developed by Robert Purves (Purves RD, 1994, J. Pharm. Sci. 83 202-205). [formula] [formula]
# where Q is the perfusate flow rate, D is the dose of diflunisal esters administered. The area under the concentration-time curve (AUC) and the first moment curve (AUMC) were estimated by the trapezoidal rule integration with appropriate modification for tail (Mellick et al., 1996, submitted for publication). [formula]
# The moment data was further examined using the dispersion model of hepatic elimination which defines F of an extracted solute by the equation (Roberts et al., 1990, J. Pharmacokin. Biopharm. 18 209-234): [formula]
# a={square root over (1+4RNDN)} (6)
# DN is the dispersion number which describes the spread of solute residence times in the liver following bolus input and equal half the normalized variance for a non-extracted reference indicator [formula]
# RN is the efficiency number which characterises the elimination of solute by the liver and is defined by the equation: [formula]
# (Gillette, 1971, Ann. N. Acad. Sci. 179 43-61)), and Q is the perfusate flow rate. If F for a solute and the CV^2 for a non-extracted reference solute (eg. EB) are known, we can solve for “a” using equation (5) and then for “RN” using equation (6).
# The dispersion model expressions (Roberts et al., 1990) for MTT and CV^2 are presented in equations (8) and (9). [formula] [formula] […]
# [7] = fitting to one-compartment dispersion model, individual curves 1-12 and Mean S.E. (n = 12)
# [8] = fitting to one-compartment dispersion model, individual curves 1-12 and Mean S.E. (n = 12), listed as 3H -water
compound,measurement,setting,value
"CCCCCCC(=O)Oc1ccc(-c2ccc(F)cc2F)cc1C(=O)O [Compound C7D, n-heptanoyldiflunisal]",CL inhibition (%),"[1]; 0.5 (unit uncertain) compound, U = undetectable",21.3 ± 3.7%
same,CL inhibition (%),[1]; 2.5 (unit uncertain) compound,57.3 ± 1.9%
same,CL inhibition (%),[1]; 5 (unit uncertain) compound,87.4 ± 3.4%
same,Platelet Aggregation (% of control),[2]; preincubation 3 minutes,97.5 ± 0.9 % of control
same,Platelet Aggregation (% of control),[2]; preincubation 5 minutes,96.3 ± 1.1 % of control
same,Platelet Aggregation (% of control),[2]; preincubation 8 minutes,91.4 ± 0.1 % of control
same,Platelet Aggregation (% of control),[2]; preincubation 10 minutes,91.1 ± 2.1 % of control
same,Platelet Aggregation (% of control),[2]; preincubation 12 minutes,90.8 ± 0.8 % of control
same,Platelet Aggregation (% of control),[2]; preincubation 15 minutes,89.7 ± 2.1 % of control
same,Platelet Aggregation (% of control),[2]; preincubation 20 minutes,77.3 ± 3.1 % of control
same,Platelet Aggregation (% of control),[2]; preincubation 25 minutes,57.3 ± 0.1 % of control
same,Platelet Aggregation (% of control),[2]; preincubation 45 minutes,0 % of control
same,log 1/C,[3],4.52
same,CL inhibition (%),[4],0.9 ± 0.1%
"CCCCCCC(=O)Oc1ccccc1C(=O)O [Compound C7SA, n-heptanoylsalicylic acid]",Hydrolysis rate constant (k),"[5]; Krebs-Henseleit buffer 0% BSA, U = Undetectable",0.0052 ± 0.0032 hour^1
same,Hydrolysis rate constant (k),[5]; Krebs-Henseleit buffer 2% BSA,0.0013 ± 0.0005 hour^1
same,half-life,"[5]; bovine, Krebs-Henseleit buffer with 2% w/v BSA",22.2 days
same,half-life,"[5]; protein-free Krebs-Henseleit buffer, Krebs-Henseleit buffer 0% BSA, first half life, t1/2=0.693/k, U = Undetectable",5.55 days
Cc1cc(-c2ccc(/N=N/c3ccc4c(S(=O)(=O)O)cc(S(=O)(=O)O)c(N)c4c3O)c(C)c2)ccc1/N=N/c1ccc2c(S(=O)(=O)O)cc(S(=O)(=O)O)c(N)c2c1O [EB],CV^2 of reference solute,[6],1.15±0.11
same,F (hepatic availability) of reference solute,[6],0.95±0.04
same,MTT of reference solute,[6],9.04 ± 0.65 s
[3H]O[3H] [[^3H]-water],MTTE (mean transit time of blood),[6]; individual curves 1-12 and Mean S.E. (n = 12),7.36 ± 0.87 s
same,MTTE (mean transit time of blood),"[6]; individual curves 1-12 and Mean S.E. (n = 12), listed as 3H -water",10.09 s and 9.52 s and 11.67 s and 13.40 s and 5.11 s and 4.99 s and 4.23 s and 4.95 s and 6.39 s and 6.33 s and 5.52 s and 6.08 s
same,DN (dispersion number),[6]; [7],0.29±0.03
same,MTTW (mean transit time of the whole liver),[6]; [7],11.70 ± 1.39 s
same,DN (dispersion number),[6]; [8],0.33 and 0.23 (3×) and 0.27 and 0.36 and 0.22 and 0.58 and 0.24 (2×) and 0.26
same,MTTW (mean transit time of the whole liver),[6]; [8],16.05 s and 15.15 s and 18.56 s and 21.31 s and 8.12 s and 7.94 s and 6.73 s and 7.87 s and 10.16 s and 10.07 s and 8.78 s and 9.66 s
same,DN (dispersion number),[6]; from CV^2 of the moments analysis,0.36±0.04
same,CV^2 of reference solute,[6],0.71±0.08
same,F (hepatic availability) of reference solute,[6],0.87±0.02
same,MTT of reference solute,[6],14.42 ± 0.79 s

# — patent publication US6593365B1, “Diflunisal esters and related compounds” (The University of Queensland, priority 1997, dated 2003)
